For orientation: MIC means the smallest concentration in the dilution series that meets the test's criterion for growth inhibition.

The source of these data is US20260274892A1, “MACROCYCLIC BROAD SPECTRUM ANTIBIOTICS” (RQx Pharmaceuticals, Inc., priority 2017, published 2026).

Assay [1] has as its system Methicillin Resistant Staphylococcus aureus strain USA 200. Nature of the assay: Minimum inhibitory concentration (MIC), CLSI broth micro-dilution, S. aureus. Type of assay: cell-based. Particulars: Staphylococcus aureus, MRSA / USA200, MRSA USA 200, cation adjusted Mueller Hinton Broth + 0.002% Tween-80, 35° C., 22 hours. Summed up:
(§1)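 Antibacterial potency is measured as MIC by the CLSI broth dilution method. Bacteria at OD600 0.0005 in Tween-80-supplemented cation-adjusted Mueller Hinton broth face ten twofold compound dilutions for 22 h at 35° C.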
(In general: Dilution methods test growth across graded concentrations, often in twofold steps.)

Assay [2] concerns Escherichia coli ATCC 25922. Nature of the assay: Minimum inhibitory concentration (MIC), CLSI broth micro-dilution, E. coli. Type of assay: cell-based. The settings on record: Escherichia coli, ATCC25922, 22 h. In a few lines:
as §1

The mark [3] stands for this setting: Table 6, cation adjusted Mueller Hinton Broth + 0.002% Tween-80, 35° C.
[4] abbreviates: Table 8, cation adjusted Mueller Hinton Broth + 0.002% Tween-80, 35° C.

As for `COc1ccc2cc1-c1cc(ccc1OCCN)C[C@@H](C(=O)NCC#N)NC(=O)[C@H](C)NC(=O)[C@H]2N(C)C(=O)[C@H](CCN)NC(=O)c1cnc(-c2ccc(C(C)(C)C)cc2)nc1C` (racemic) [Compound 558, rac-(8S,11S,14S)-3-(2-aminoethoxy)-N-(cyanomethyl)-18-methoxy-11-methyl-14-[methyl-[rac-(2S)-4-amino-2-[[2-(4-tert-butylphenyl)-4-methyl-pyrimidine-5-carbonyl]amino]butanoyl]amino]-10,13-dioxo-9,12-diazatricyclo[13.3.1.12,6]icosa-1(18),2(20),3,5,15(19),16-hexaene-8-carboxamide], the MIC came to 0.046 µM in assay [1] (Table 6) and 0.73 µM in assay [2] (setting [3]).
Consider `CCCCCOc1ccc(-c2nc(C)c(C(=O)N[C@@H](CCN)C(=O)N(C)[C@@H]3C(=O)N[C@@H](C)C(=O)N[C@H](C(=O)O)Cc4ccc(OCCN)c(c4)-c4cc3ccc4OCCN)c(C)n2)cc1` (racemic) [Compound 638, rac-(8S,11S,14S)-3,18-bis(2-aminoethoxy)-11-methyl-14-[methyl-[rac-(2S)-4-amino-2-[[4,6-dimethyl-2-(4-pentoxyphenyl)pyrimidine-5-carbonyl]amino]butanoyl]amino]-10,13-dioxo-9,12-diazatricyclo [13.3.1.12,6]icosa-1(18),2(20),3,5,15(19), 16-hexaene-8-carboxylic acid], for which the MIC came to 0.19 µM in assay [1] (Table 8) and 0.22 µM in assay [2] (setting [4]).
For `CCC1(Oc2ccc(-c3nc(C)c(C(=O)N[C@@H](CCN)C(=O)N(C)[C@@H]4C(=O)N[C@@H](C)C(=O)N[C@H](C(=O)O)Cc5ccc(OCCN)c(c5)-c5cc4ccc5OCCN)c(C)n3)cc2)CC1` (racemic) [Compound 639, rac-(8S,11S,14S)-3,18-bis(2-aminoethoxy)-11-methyl-14-[methyl-[rac-(2S)-4-amino-2-[[2-[4-(1-ethylcyclopropoxy)phenyl]-4,6-dimethyl-pyrimidine-5-carbonyl]amino]butanoyl]amino]-10,13-dioxo-9,12-diazatricyclo [13.3.1.12,6]icosa-1(18),2(20),3,5,15(19), 16-hexaene-8-carboxylic acid] the same measures were 0.75 µM and 0.38 µM.
On the same counts, the results for `CCCCCCOc1ccc(-c2nc(C)c(C(=O)N[C@@H](CCN)C(=O)N(C)[C@@H]3C(=O)N[C@@H](C)C(=O)N[C@H](C(=O)O)Cc4ccc(OCCN)c(c4)-c4cc3ccc4OCCN)c(C)n2)cc1` (racemic) [Compound 641, rac-(8S,11S,14S)-3,18-bis(2-aminoethoxy)-11-methyl-14-[methyl-[rac-(2S)-4-amino-2-[[2-(4-hexoxyphenyl)-4,6-dimethyl-pyrimidine-5-carbonyl]amino]butanoyl]amino]-10,13-dioxo-9,12-diazatricyclo [13.3.1.12,6]icosa-1(18),2(20),3,5,15(19), 16-hexaene-8-carboxylic acid] are 0.047 µM and 0.094 µM.
For `CCCCCOc1ccc(-c2nc(C)c(C(=O)N[C@@H](CCN)C(=O)N(C)[C@@H]3C(=O)N[C@@H](C)C(=O)N[C@H](C(=O)O)Cc4ccc(OCCN)c(c4)-c4cc3ccc4O)c(C)n2)cc1` (racemic) [Compound 642, rac-(8S,11S,14S)-3-(2-aminoethoxy)-18-hydroxy-11-methyl-14-[methyl-[rac-(2S)-4-amino-2-[[4,6-dimethyl-2-(4-pentoxyphenyl)pyrimidine-5-carbonyl]amino]butanoyl]amino]-10,13-dioxo-9,12-diazatricyclo [13.3.1.12,6]icosa-1(18),2(20),3,5,15(19), 16-hexaene-8-carboxylic acid] the same measures were 0.21 µM and 0.23 µM.
Turning to `Cc1nc(-c2ccc(OC(C)C)cc2)nc(C)c1C(=O)N[C@@H](CCN)C(=O)N(C)[C@@H]1C(=O)N[C@@H](C)C(=O)N[C@H](C(=O)O)Cc2ccc(O)c(c2)-c2cc1ccc2OCCN` (racemic) [Compound 643, rac-(8S,11S,14S)-18-(2-aminoethoxy)-3-hydroxy-11-methyl-14-[methyl-[rac-(2S)-4-amino-2-[[2-(4-isopropoxyphenyl)-4,6-dimethyl-pyrimidine-5-carbonyl]amino]butanoyl]amino]-10,13-dioxo-9,12-diazatricyclo [13.3.1.12,6]icosa-1(18),2(20),3,5,15(19), 16-hexaene-8-carboxylic acid], the values for the MIC in assay [1] (Table 8) and in assay [2] (setting [4]) were 1.1 µM and 2.3 µM, respectively.
For `Cc1cc(-c2ccc(C(C)(C)C)cc2)nc(C)c1C(=O)N[C@@H](CCN)C(=O)N(C)[C@@H]1C(=O)N[C@@H](C)C(=O)N[C@H](C(=O)O)Cc2ccc(O)c(c2)-c2cc1ccc2OCCN` (racemic) [Compound 644, rac-(8S,11S,14S)-18-(2-aminoethoxy)-3-hydroxy-11-methyl-14-[methyl-[rac-(2S)-4-amino-2-[[6-(4-tert-butylphenyl)-2,4-dimethyl-pyridine-3-carbonyl]amino]butanoyl]amino]-10,13-dioxo-9,12-diazatricyclo [13.3.1.12,6]icosa-1(18),2(20),3,5,15(19), 16-hexaene-8-carboxylic acid] the same measures were 1.2 µM and 0.58 µM.
As to `Cc1nc(-c2ccc(C(C)(C)C)cc2)nc(C)c1C(=O)N[C@@H](CCN)C(=O)N(C)[C@@H]1C(=O)N[C@@H](C)C(=O)N[C@H](C(=O)O)Cc2ccc(OCCN)c(c2)-c2cc1ccc2OCCN` (racemic) [Compound 645, rac-(8S,11S,14S)-3,18-bis(2-aminoethoxy)-11-methyl-14-[methyl-[rac-(2S)-4-amino-2-[[2-(4-tert-butylphenyl)-4,6-dimethyl-pyrimidine-5-carbonyl]amino]butanoyl]amino]-10,13-dioxo-9,12-diazatricyclo [13.3.1.12,6]icosa-1(18),2(20),3,5,15(19), 16-hexaene-8-carboxylic acid], the MIC in assay [1] (Table 8) was found to be 0.52 µM; in assay [2] (setting [4]), 0.4 µM.
On the same counts, the results for `Cc1nc(-c2ccc(C(C)(C)C)cc2)nc(C)c1C(=O)N[C@@H](CCN)C(=O)N(C)[C@@H]1C(=O)N[C@@H](C)C(=O)N[C@H](C(=O)O)Cc2ccc(O)c(c2)-c2cc1ccc2OCCN` (racemic) [Compound 646, rac-(8S,11S,14S)-18-(2-aminoethoxy)-3-hydroxy-11-methyl-14-[methyl-[rac-(2S)-4-amino-2-[[2-(4-tert-butylphenyl)-4,6-dimethyl-pyrimidine-5-carbonyl]amino]butanoyl]amino]-10,13-dioxo-9,12-diazatricyclo [13.3.1.12,6]icosa-1(18),2(20),3,5,15(19), 16-hexaene-8-carboxylic acid] are 1.1 µM and 0.37 µM.
On the same counts, the results for `Cc1nc(-c2ccc3c(c2)CCC3(C)C)nc(C)c1C(=O)N[C@@H](CCN)C(=O)N(C)[C@@H]1C(=O)N[C@@H](C)C(=O)N[C@H](C(=O)O)Cc2ccc(OCCN)c(c2)-c2cc1ccc2OCCN` (racemic) [Compound 647, rac-(8S,11S,14S)-3,18-bis(2-aminoethoxy)-11-methyl-14-[methyl-[rac-(2S)-4-amino-2-[[2-(1,1-dimethylindan-5-yl)-4,6-dimethyl-pyrimidine-5-carbonyl]amino]butanoyl]amino]-10,13-dioxo-9,12-diazatricyclo [13.3.1.12,6]icosa-1(18),2(20),3,5,15(19), 16-hexaene-8-carboxylic acid] are 0.19 µM and 0.25 µM.
`CCCCCOc1ccc(-c2nc(C)c(C(=O)N[C@@H](CCN)C(=O)N(C)[C@@H]3C(=O)N[C@@H](C)C(=O)N[C@H](C(=O)O)Cc4ccc(O)c(c4)-c4cc3ccc4OCCN)c(C)n2)cc1` (racemic) [Compound 648, rac-(8S,11S,14S)-18-(2-aminoethoxy)-3-hydroxy-11-methyl-14-[methyl-[rac-(2S)-4-amino-2-[[4,6-dimethyl-2-(4-pentoxyphenyl)pyrimidine-5-carbonyl]amino]butanoyl]amino]-10,13-dioxo-9,12-diazatricyclo [13.3.1.12,6]icosa-1(18),2(20),3,5,15(19), 16-hexaene-8-carboxylic acid]: the values for the MIC in assay [1] (Table 8) and in assay [2] (setting [4]) were 0.28 µM and 0.1 µM, respectively.
Regarding `Cc1nc([C@H]2CC[C@H](C(C)(C)C)CC2)nc(C)c1C(=O)N[C@@H](CCN)C(=O)N(C)[C@@H]1C(=O)N[C@@H](C)C(=O)N[C@H](C(=O)NCC#N)Cc2ccc(OCCN)c(c2)-c2cc1ccc2OCCN` [Compound 296, rac-(8S,11S,14S)-3,18-bis(2-aminoethoxy)-N-(cyanomethyl)-11-methyl-14-[methyl-[rac-(2S)-4-amino-2-[[2-(4-tert-butylcyclohexyl)-4,6-dimethyl-pyrimidine-5-carbonyl]amino]butanoyl]amino]-10,13-dioxo-9,12-diazatricyclo[13.3.1.12,6]icosa-1(18),2(20),3,5,15(19),16-hexaene-8-carboxamide], the MIC was 0.016 µM in assay [1] (Table 6) and 0.38 µM in assay [2] (setting [3]).
As to `Cc1nc([C@H]2CC[C@@H](C(C)(C)C)CC2)nc(C)c1C(=O)N[C@@H](CCN)C(=O)N(C)[C@@H]1C(=O)N[C@@H](C)C(=O)N[C@H](C(=O)NCC#N)Cc2ccc(OCCN)c(c2)-c2cc1ccc2OCCN` [Compound 297, rac-(8S,11S,14S)-3,18-bis(2-aminoethoxy)-N-(cyanomethyl)-11-methyl-14-[methyl-[rac-(2S)-4-amino-2-[[2-(4-tert-butylcyclohexyl)-4,6-dimethyl-pyrimidine-5-carbonyl]amino]butanoyl]amino]-10,13-dioxo-9,12-diazatricyclo[13.3.1.12,6]icosa-1(18),2(20),3,5,15(19),16-hexaene-8-carboxamide], the MIC in assay [1] (Table 6) turned out to be 0.016 µM; in assay [2] (setting [3]), 0.75 µM.
